Results as given in US20230277491A1, “PHARMACEUTICAL COMBINATION COMPRISING GLYCOLIC ACID AND L-ALANINE” (priority 2020, published 2023).

Tests used:
HeLa cells = experiment: Intracellular calcium, Fluo4-AM loaded HeLa cells, fluorescent plate reader; format: cell-based; conditions: FIG. 12
Description: HeLa cells were loaded with Fluo4-AM and fluorescence was monitored with the help of a fluorescent plate reader. Values are normalized to the initial fluorescent value.

[1] = tested on: HeLa cells treated with siRNA against PARK-7/DJ-1; experiment: Calcium imaging on HeLa cells during mitosis after PARK-7/DJ-1 down-regulation; format: cell-based; conditions: PARK-7/DJ-1 down-regulated HeLa cells, 5 mM, FIG. 17
Experimental: HeLa cells were loaded with Fluo-4 AM, a dye used to measure calcium concentration in living cells, as described by the manufacturer and recorded for 4 hours. Graphics show the variations in intracellular calcium concentration during mitosis in WT and cells treated with siRNA against PARK-7/DJ-1 to down-regulate this gene.
HeLa-Kyoto cells stably expressing histone H2B-mCherry and mouse DJ-1 were used. Cells were maintained in DMEM supplemented with 10% fetal bovine serum (FBS), 2 mM GlutaMAX, 100 unit/ml penicillin, 100 μg/ml streptomycin. For esiRNA treatment, cells were plated at a density of 15.000 cells/well in an ibidi 8 well chamber (Cat. no 80826, ibidi, Germany, EU), transfected with different esiRNAs (RLUC as empty vector, hPARK-7 and hKIF11 as positive control) (all esiRNAs were obtained from Eupheria, Germany, EU), and left for 72 hours before performing calcium imaging. esiRNA transfection was performed as follows. esiRNA was diluted in distilled water to a concentration of 20 ng/μl. For each well, two solutions were made: 1. […]
We observed that the Fluo-4 AM dye started to leak out of the cells into the medium after 1.5 hours of imaging. […] Images were analyzed using FIJI Image Analysis Freeware (https://fiji.sc). MFI of the Fluo-4 AM signal within the cell was determined using manually selected ROIs covering the whole cell area for each time-point. […]

[2] = tested on: djr1.1/djr1.2 and glod-4 KO C. elegans; experiment: Embryonic lethality in C. elegans (percentage of hatched eggs); format: in vivo; conditions: worms fed with substance, FIG. 18
Experimental: All C. elegans strains were maintained on NGM agar plates seeded with Escherichia coli NA22 at 15° C.

[3] = tested on: DJ-1 RNAi depleted HeLa cells; conditions: cited from earlier work
dopaminergic neurons [4] = conditions: cited from earlier work
dopaminergic neurons [5] = experiment: Survival of dopaminergic neurons with paraquat 25 μM challenge (Example 1, FIG. 1); format: cell-based, mouse
Experimental: (§1) Dopaminergic neurons were isolated and plated at a concentration of 1.000.000 cells/ml (100 μl/well) in a 96 well plate and cultured in medium with one or more of the various factors indicated, as described in the examples below. The survival of dopaminergic neurons in the presence and absence of various agents of the invention, either with or without paraquat challenge, is shown by the number of TH positive neurons normalized to the control treatment.
Dopaminergic neurons were isolated and plated at a concentration of 1.000.000 cells/ml (100 μl/well) in a 96 well plate. After 3-4 hours incubation at 37° C., 20 μl of medium was removed from each well. (VF=80 μl). Changes in medium and start point of the treatment were done in the following day in vitro (DIV). The following protocol was employed in order to assess the survival of dopaminergic neurons in the presence and absence of various agents of the invention combination, either with or without paraquat challenge. • DIV.1: Change half of medium N2 (40 μl) with fresh medium N2. • DIV.3: Change half of the medium and start with medium (control) or with medium A containing LA (different concentrations) and/or GA (normally 5 mM or 10 mM). Medium A is N2 medium but without FBS and N2-Supplement. • DIV.5: Second round of control or treatment with LA and/or GA. Half of the medium (40 μl) was replaced by fresh medium A with the different agents. • DIV.7: Paraquat 25 μM treatment starts with or without GA and L-alanine. Half of the medium (40 μl) was replaced by fresh medium A with the different treatment combinations or without (control). • DIV.9: Second day of treatment with Paraquat (PQ) 25 μM in addition to the other substances (LA and GA). • DIV.10: Fixation 2% of PFA during 20 min at 37° C. or overnight at 4° C.
Primary mesencephalic neuronal cell cultures were prepared as previously described. Briefly, E14.5 embryos were obtained from C57JBL6 pregnant mice after cervical dislocation. Brain mesencephali were dissected under the microscope and digested with Trypsin-EDTA 0.12% (Life Technologies, USA) for 7 min. The trypsin reaction was then stopped by adding basic medium (BM), containing Neurobasal A medium (Gibco, USA), 1 mg/mL Pen/Strep, 10% FCS, and […] L-Glutamine, and cells were mechanically dissociated using a fire-polished Pasteur pipette. Medium was fully replaced after 5 min, centrifugation at 1200 rpm, aspiring the supernatant and adding 8 mL of fresh BM to the pellet. Concentration of cells in the medium was estimated using a Neubauer chamber and a 100 μL of medium containing 10^6 cells/mL plated per well in a 96-well plate (Greiner Sensoplate, Germany, EU). Then a 20 μL of medium was removed from the well and 24 h later, ⅓ of the media was replaced with fresh BM. […]

dopaminergic neurons [6] = experiment: Survival of dopaminergic neurons with paraquat 12.5 μM challenge (Example 5, FIGS. 19, 20); format: cell-based, mouse
Experimental: as §1
Dopaminergic neurons were isolated and plated at a concentration of 1.000.000 cells/ml (100 μl/well) in a 96 well plate. After 3-4 hours incubation at 37° C., 20 μl of medium was removed from each well. (VF=80 μl). Changes in medium and start point of the treatment were on the following day in vitro (DIV). The following protocol was employed to assess the survival of dopaminergic neurons in the presence and absence of various agents of the inventive combination, either with or without paraquat challenge. • DIV.1: Change half of medium N2 (40 μl) with fresh medium N2. • DIV.3: Change half of the medium and start with medium (control) or with medium A containing PB (0.15 mM) and TUDCA (0.5 mM), or with Medium A containing GA (normally 1 mM, 3 mM, or 10 mM) or with Medium A containing GA (1 mM or 3 mM) and PB (0.15 mM) or with Medium A containing GA (5 mM) and TUDCA (0.5 mM) or with Medium A containing PB (0.15 mM). Medium A is N2 medium but without FBS and N2-Supplement. • DIV.5: Second round of control or treatment with different treatments. Half of the medium (40 μl) was replaced by fresh medium A with the different agents. • DIV.7: Paraquat 12.5 μM treatment starts alone or in combination with the treatments explained above. Half of the medium (40 μl) was replaced by fresh medium A with the different treatment combinations or without (control). • DIV.9: Second day of treatment with Paraquat (PQ) 12.5 μM in addition to the other treatments as explained above. • DIV.11: Fixation 2% of PFA during 20 min at 37° C. or overnight at 4° C.
The effect of the different treatments on dopaminergic neurons survival upon exposure to paraquat was assessed through of TH+ neurons after treatment. Briefly, neurons were fixed using 2% paraformaldehyde for immunocytochemical analysis after treatment. Dopaminergic TH^+ neurons per well were identified and counted using an inverted fluorescence microscope (Olympus) under a 20× objective.

[7] = human, in vivo
Description: Potential side effects were closely monitored.

[8] = estimated; cited from earlier work
[9] = 5 g tablet or powder by mouth; cited from earlier work

In the case of C[C@@H](O)C(=O)O [DL, D-(−)-lactic acid], the “intracellular calcium (Fluo4-AM fluorescence normalized to initial value)” value (HeLa cells) is reported as “reduce intracellular calcium”, the “calcium influx during mitosis” value [1] is reported as “able to rescue this phenotype” and the “embryonic lethality (percentage of hatched eggs)” value [2] is reported as “rescue of embryonic lethality”. For the same compound, the mitochondrial potential [3] was “maintain or rescue mitochondrial potential” and the “survival of dopaminergic neurons” value (dopaminergic neurons [4]) was “rescued the survival of dopaminergic neurons”.

For C[n+]1ccc(-c2cc[n+](C)cc2)cc1 [PQ, Paraquat, reference compound], the “survival of dopaminergic neurons (number of TH positive neurons normalized to the control treatment)” value (dopaminergic neurons [5]; PQ 25 μM alone) was “severe reduction in neuron survival”, the “number of TH positive neurons normalized to the control treatment” value (dopaminergic neurons [6]; PQ 12.5 μM alone, FIG. 19) was 0.58 and the “number of TH positive neurons normalized to the control treatment” value (dopaminergic neurons [6]; PQ 12.5 μM alone, FIG. 20) was 0.44.

With C[C@H](N)C(=O)O [LA, L-Alanine] the “survival of dopaminergic neurons (rescue)” value (dopaminergic neurons [5]; 0.01 mM LA alone with PQ 25 μM) was “no rescue”, the “prevention of kidney damage or stones, renal or liver disfunction” value [7] was “sufficient to prevent any kidney damage or stones” and the “side effects / function of the kidney or liver” value [7] was “avoid any unwanted side effects or reductions in function of the kidney or liver”.

In the case of OCCOCCO [diethylene glycol], the minimum toxic dose [8] is listed as 0.14 mg glycolic acid per kg of body weight.

For sodium phenylbutyrate, the “time to metabolism into phenylacetate” value [9] is listed as “within half an hour”, the “time to peak concentration in the bloodstream” value [9] is listed as “within an hour” and the “time until detected in the blood” value [9] is listed as ≤ 15 min.

In the case of O=C(O)CCCc1ccccc1 [PB, 4-Phenylbutyric acid, reference compound], the “number of TH positive neurons normalized to the control treatment” value (dopaminergic neurons [6]; PQ 12.5 μM + 0.15 mM PB, FIG. 19) is reported as 0.72.
